{"source": "patent US20140315857A1", "about": "“N- (4 -QUINOLINYLMETHYL) SULFONAMIDE DERIVATIVES AND THEIR USE AS ANTHELMINTICS” (E I DU PONT DE NEMOURS AND COMPANY, priority 2011, published 2014)", "key": {"[1]": {"tested_on": "Haemonchus contortus", "assay": "Test A: control of barber pole worm, eggs in culture media, mortality at L3 stage", "assay_type": "cell-based", "conditions": "120 h", "experimental": "For evaluating control of the barber pole worm (Haemonchus contortus), a test compound was solubilized in culture media (Earle's Balanced Salt Solution) containing Haemonchus contortus eggs to obtain a final test compound concentration of 2.0 ppm. The test unit was evaluated for mortality 120 hours later after which the eggs had hatched and had advanced to the L3 stage."}, "[2]": {"tested_on": "Haemonchus contortus", "assay": "Test B: Haemonchus contortus burdens in infected mice after oral gavage", "assay_type": "in vivo", "conditions": "oral gavage 10.0 mg/kg body weight on day 0, Haemonchus contortus burdens on day 5 relative to vehicle-dosed controls", "experimental": "For evaluating control of the barber pole worm (Haemonchus contortus), mice were each infected orally with 600 L3 Haemonchus contortus larvae on Day −3. On day 0, the infected mice were gavaged with a test compound (n=1) in a propylene glycol/glycerol formal solution at the rate of 10.0 mg/kg body weight. On day 5, the mice were euthanized and evaluated for Haemonchus contortus burdens relative to the vehicle-dosed controls. The range of means for the number of Haemonchus contortus in the various tests in which these compounds were studied was 92-184."}}}
{"smiles": "O=S(=O)(NCc1ccnc2ccccc12)c1ccc(C#CC2CC2)cc1", "note": "[Compound 2, 4-(2-cyclopropylethynyl)-N-(4-quinolinylmethyl)benzenesulfonamide]", "values": [{"measurement": "mortality at 2 ppm", "setting": "[1]", "result": 100, "unit": "%"}, {"measurement": "% Efficacy", "setting": "[2]", "result": 60, "unit": "%"}]}
{"smiles": "O=S(=O)(NCc1ccnc2ccccc12)c1ccc(C#Cc2ccccn2)cc1", "note": "[Compound 4, 4-[2-(2-pyridinyl)ethynyl]-N-(4-quinolinylmethyl)benzenesulfonamide]", "values": [{"measurement": "mortality at 2 ppm", "setting": "[1]", "result": 100, "unit": "%"}, {"measurement": "% Efficacy", "setting": "[2]", "result": 89, "unit": "%"}]}
{"smiles": "O=S(=O)(NCc1ccnc2ccccc12)c1ccc(C#CC2CC2)s1", "note": "[Compound 15, 5-(2-cyclopropylethynyl)-N-(4-quinolinylmethyl)-2-thiophenesulfonamide]", "values": [{"measurement": "mortality at 2 ppm", "setting": "[1]", "result": 100, "unit": "%"}, {"measurement": "% Efficacy", "setting": "[2]", "result": 93, "unit": "%"}]}
{"smiles": "O=S(=O)(NCc1ccnc2ncccc12)c1ccc(C#CC2CC2)cc1", "note": "[Compound 48, 4-(2-cyclopropylethynyl)-N-(1,8-naphthyridin-4-ylmethyl)-benzenesulfonamide]", "values": [{"measurement": "melting point", "result": "193 to 195", "unit": "°C"}]}
